In patent US5792457A, “Antibody recognizing endothelial cell ligand for leukocyte CR3” (priority 1995, dated 1998):

Columns and labels:
[1] = tested on: neutrophil adherence to human umbilical vein endothelial cells (HUVEC); assay: Adherence of neutrophils to cultured (TNF alpha stimulated) endothelial cells; format: cell-based; settings: for role of RGD in blocking neutrophil adherence (in words) / inhibition of neutrophil adherence: 20-mer peptides, 0.5 mM; for inhibition of neutrophil adherence (in words): peptides 0.5 mM (Example 9); for neutrophil adherence, peptide plus 9D4: peptide 5 μg/ml + 9D4 10 μg/ml; for neutrophil adherence, peptide plus 12H1: peptide 5 μg/ml + 12H1 10 μl of ascites; for neutrophil adherence, peptide plus IB4: peptide 5 μg/ml + IB4 10 μg/ml; for neutrophil adherence, single agent: peptide 5 μg/ml or antibody alone (IB4 10 μg/ml, 12H1 10 μl of ascites, 9D4 10 μg/ml); for additive reduction of neutrophil adherence, peptide together with IB4: with anti-CD18 mAb IB4 (50 μg/ml); for maximal inhibition of neutrophil attachment: concentration series (FIG. 25B)
Procedure: FIG. 17 is a bar graph representation of the inhibition of neutrophil adherence to activated endothelial cells by FHA, Factor X- and FHA- derived peptides. The concentration of inhibiting substances was: peptides 0.5 mM, native FHA 0.3 μM. Values represent the mean±standard deviation of 4 experiments with 5 wells/peptide.
FIG. 18 is a graphical representation of the FHA, FHA- or Factor X-peptide concentration effects on the inhibition of neutrophil adherence to activated endothelial cells. FHA peptide II monomer (Square) and trimer (Diamond), Factor X peptide II (Circle) at 10^-9 μM to 0.5 mM; native FHA at 10^-6 to 3×10^2 μM (triangle). Values represent the mean of 3 experiments with 5 wells/peptide (standard deviations <15%).
FIG. 25 is a graphical representation of the inhibition of neutrophil adherence to activated endothelial cells by FHA and FHA peptides. FIG. 25A: Peptide concentrations were 0.5 mM (FHA 0.2 μM). Values represent mean±standard deviation of four experiments with 5 wells/peptide; FIG. 25B represents the mean±standard deviation of triplicate experiments with 5 wells/peptide. Native FHA (.quadrature.); FHA peptide Ca (.largecircle.).
Human umbilical vein endothelial cells (HUVEC, first passage, Clonetics, San Diego, Calif.) were subcultured at confluence into Terasaki tissue culture wells. After 24 hours, confluent monolayers were used for adherence assays. Monolayers were stimulated with 10 ng/ml TNF alpha (Boehringer Mannheim, Indianapolis, Ind.) at 37° C. for four hours. 30 μl of human neutrophils (10^6 /ml) were labeled with fluorescein by the method of Lo et al. (1991), J. ExP. Med. 173 1493-1500, and preincubated for 15 minutes at 37° C. with 20 μl of peptides (0.5 mM in HAP) or HAP (phosphate buffered saline containing 0.5 mg/ml human serum albumin, 3 mM glucose, and 0.3 U/ml aprotinin) as a control buffer. For some experiments, endothelial cells were pretreated from 10 minutes with Factor X or antibodies against Factor X receptor (EPR-1; Altieri et al. (1990), J. Immunol. 145, 246-253) 12H1 and 9D4 (obtained from Dr. D. Altieri, Scripps Research Institute, LaJolla, Calif.) and then washed. Neutrophils were allowed to adhere to the monolayer for 15 mins. at 37° C. and unbound cells were removed by submersion of the plate in PBS buffer. The number of adherent neutrophils was counted in a 40× microscope field and expressed as a percentage of adherence in control wells with neutrophils treated with HAP buffer alone. The mAb IB4 against CD18 (50 μg/ml; Merck Inc., Rahway, N.J.) served as a positive control.
The ability of FHA peptides and anti-CD18 or anti-Factor X receptor antibodies to interact cooperatively to inhibit neutrophil adherence to endothelial cells was assessed by measuring neutrophil adherence to endothelial cells in the presence of antibody as well as antibody plus peptide. […] Anti-Factor X receptor mAb 12H1 (10 μl of ascites) or 9D4 (10 μg/ml) were added to the endothelial cell monolayers 10 min before the assay. The peptides were added at 5 μg/ml. The results are shown in Table 8 where the numerical values are in % of control binding.
The procedures for determining the neutrophil adherence to cultured endothelial cells and the transendothelial migration of neutrophils were identical with those of Example 9. Control values were the same as those shown in Example 9.

[2] = tested on: 125I-Factor X binding to human neutrophils (CD11b/CD18); assay: Inhibition of 125I-Factor X binding to neutrophils; format: cell-based; settings: for inhibition of 125I-Factor X binding to neutrophils: peptides 0.5 mM, native FHA 0.3 μM
Procedure: FIG. 15 is a bar graph representation of the inhibition of ^125 I-Factor X binding to neutrophils by FHA, FHA- or Factor X-peptides as identified in Table 6. The concentration of inhibiting substances was: peptides 0.5 mM, native FHA 0.3 μM. Values represent the mean±standard deviation of triplicate experiments.
FIG. 16 is a graphical representation of the FHA, FHA- or Factor X-peptide concentration effect on the inhibition of ^125 I-Factor X binding to neutrophils. FHA peptide II (Square) and Factor X peptide II (Circle) at 10^-2 to 5×10^2 μM; FHA at 10^-6 to […] (triangle). Values are representative of triplicate experiments (standard deviations <15%).
Human Factor X (Sigma or Hematologic Technologies Inc.) was labeled with ^125 I using Iodogen (Pierce Chemical Co.) Human neutrophils were isolated from heparinized blood according to the manufacturer's specification using Neutrophil Isolation Medium (Cardinal Associates, Santa Fe, N. Mex.) and washed three times with 5 mM EDTA-phosphate-buffered saline (PBS), pH 7.2, at 4° C. To eliminate platelet contamination, neutrophils were incubated with autologous serum containing 5 mM EDTA for 30 mins. at 37° C., washed three times with ice-cold PBS, pH 7.2, and resuspended in RPMI 1640 tissue culture medium (Whittaker M.A. Bioproducts, Walkersville, Md.) at 4° C. Binding of ^125 I-Factor X to neutrophils was measured based on a method described by Altieri et al. (1991) Science 254: 1200-1202. Briefly, 200 μl of neutrophils (1.5×10^7 /ml) were supplemented with 17.5 μl of 50 mM CaCl2, stimulated with 3.5 μl of 100 μM NH2 -formyl-Met-Leu-Phe (Sigma), and mixed with 30 μl of 10.3 μg/ml ^125 I-Factor X and 100 μl of 1.75 mM of peptide. Buffer alone and a peptide of scrambled sequence served as controls in each of the 3 experiments. After incubation for 20 mins. at room temperature, neutrophil-bound ^125 I-Factor X was separated from unbound ^125 I-Factor X by centrifugation of 300 μl aliquots through 50 μl of a mixture of Hi phenyl silicone oil DC 550 and methyl silicone oil DC 200 5:1 (Nye Inc. Specialty Lubricants, New Bedford, Mass.) at 12,000×g for 2 mins. Aliquots of the supernatant (cell free ^125 I-Factor X) and the cell pellet (cell bound ^125 I-Factor X) were counted in a gamma-counter. Nonspecific binding (~50,000 cpm) was determined by adding a 100 fold excess of unlabeled Factor X, and subtracted from total radioactivity (~500,000 cpm for controls).

With AADPHQGVLAQGDIIMDAKG [FHA Cc] the “role of RGD in blocking neutrophil adherence (in words)” value [1] was “activity was detectable above background but was not statistically different from buffer alone”.

For Ac-ETKEVDG-NH2 [Acetyl/Amide-FHA II], the “inhibition of neutrophil adherence (in words)” value (“inhibition … (in words)” below) [1] was “significantly enhanced the ability of peptide FHA II to block neutrophil adherence to endothelia”.

In the case of “DEETVK [scrambled FHA II, reference compound]”, the “inhibition … (in words)” value [1] is reported as “did not interfere with neutrophil binding”.

For ETKEVDG [FHA II], the “neutrophil adherence, peptide plus 9D4” value [1] was 45 ± 9 % of control binding, the “neutrophil adherence, peptide plus 12H1” value [1] was 67 ± 13 % of control binding and the “neutrophil adherence, peptide plus IB4” value [1] was 11 ± 6 % of control binding. The “neutrophil adherence, single agent” value [1] was 40 ± 23 % of control binding, the “additive reduction of neutrophil adherence, peptide together with IB4” value [1] was over 80±10% and the IC50 [2] was 10 µM. The “inhibition of 125I-Factor X binding to neutrophils” value [2] was 87±8%.

GTLLLRNDALTENGTVTISA [FHA Cd] was tested, and the “inhibition of neutrophil adherence” value [1] was under 15%.

GYDTKQEDG [Factor X II] showed an IC50 [2] of 500 µM.

For “LGYQAK (UniProt P12255 1979-1984, looked up, fragment) [FHA Ia]”, the “neutrophil adherence, peptide plus 9D4” value [1] was 63 ± 17 % of control binding, the “neutrophil adherence, peptide plus 12H1” value [1] was 64 ± 12 % of control binding and the “neutrophil adherence, peptide plus IB4” value [1] was 20 ± 7 % of control binding. For the same substance, the “neutrophil adherence, single agent” value [1] was 63 ± 12 % of control binding, the “inhibition … (in words)” value [1] was “significantly more active than the Factor X peptide I” and the “additive reduction of neutrophil adherence, peptide together with IB4” value [1] was over 80±10%.

RADPHQGVLAQGDIIMDAKG [FHA Cb] was tested, and the “role of RGD in blocking neutrophil adherence (in words)” value [1] was “activity was decreased by half”.

For RGDPHQGVLAQGDIIMDAKG [FHA Ca], the “inhibition of neutrophil adherence” value [1] was 47±7% and the “maximal inhibition of neutrophil attachment” value [1] was ~ 50%.

For “native FHA: Filamentous hemagglutinin, 220kD surface associated protein of Bordetella pertussis (List Biologicals)”, the “concentration at which loss of activity (≤20% inhibition) occurred” value [1] was 10^-3 μM, the “maximal inhibition of neutrophil attachment” value [1] was ~ 50% and the “reduction of neutrophil binding to HUVEC” value ([1]; native FHA 25 μg/ml = 0.3 μM) was 51±8%. The “inhibition of adherence of neutrophils to endothelial cells” value ([1]; native FHA 50 ug/ml, 0.2 uM) was 51±7%, the IC50 [2] was 0.1 µM and the “inhibition of 125I-Factor X binding to neutrophils” value [2] was 70±4%.
